Measurements reported in patent publication US7091351B2, “Vanadium compounds for treating cancer” (Parker Hughes Institute, priority 1998, dated 2006).

Experiments:
Type in all cases: cell-based, human
[1] = system: Ntera-2 testicular cancer cells; assay: MTT cytotoxicity assay of vanadocenes, NTERA-2 cells; settings: 24 h, 1.9-250 μM
Description: (§1) Human testicular cancer cell lines, Tera-2 (embryonal carcinoma) and Ntera-2 (pluripotent embryonal carcinoma) were obtained from the American Type Culture Collection (ATCC) (Rockeville, Md.) and propagated in T-25, T-75, or T-150 cm^2 tissue culture flasks (Corning Corp., Corning, N.Y.) in McCoy's 5A medium and Dulbecco's modified Eagle's medium respectively. Both media were supplemented with 10% fetal calf serum (FCS), 4 mM glutamine, 100 U/ml penicillin G, and […] streptomycin sulfate. All tissue culture reagents were obtained from Life Technologies Inc. (GIBCO-BRL), Gaithersburg, Md. Cell lines were cultivated for a minimum of two passages after thawing prior to experimentation. Other cell lines that were used in this study were the human B-lineage acute lymphoblastic leukemia (ALL) cell line NALM-6. Uckun, F. M., Evans, W. E., Forsyth, C. J., Waddick, K. G., Tuel-Ahlgren, L., Chelstrom, L. M., Burkhardt, A., Bolen, J., Myers, D. E. Biotherapy of B-cell precursor leukemia by targeting genistein to CD19-associated tyrosine kinase. Science (Washington DC) 267:886–91, 1995; T-lineage ALL cell line MOLT-3, Waurzyniak, B., Shneider, E. A., Tumer, N., Yanishevski, Y., Gunther, R., Chelstrom, L., Wendorf, H., Myers, D. E., Irvin, J. D., Messinger, Y., Ek, O., Zeren, T., Chandan-Langlie, M., Evans, W. E., Uckun, F. M. In vivo toxicity, pharmacokinetics, and antileukemic activity of TXU (anti-CD7)-pokeweed antiviral protein immunotoxin. Clinical Cancer Research 3:881–890, 1997; AML cell line HL-60, Perentesis, J. P., Waddick, K. G., Bendel, A. E., Shao, Y., Warman, B. E., Chandan-Langlie, M., and Uckun, F. M. Induction of apoptosis in multi-drug resistant andradiation-resistant acute myeloid leukemia cells by a recombinant fusion toxin directed against the granulocyte macrophage colony stimulating factor receptor. Clin. Cancer Res. 3:347–355, 1997; breast cancer cell lines MDA-MB-231 and BT-20, Uckun, F. M., Narla, R. K., Jun, X., Zeren, T., Venkatachalam, T., Waddick, K. G., Rostostev, A., Myers, D. E. Cytotoxic activity of EGF-genstein against breast cancer cells. Clin. Cancer Res. 4:901–912, 1998; glioblastoma cell lines U87 and U373, Narla, R. K., Liu, X., Myers, D. E., and Uckun, F. M. 4-(3′-Bromo-4′hydroxylphenyl)-amino-6,7-dimethoxyquinazoline (WHI-P154): A novel quinazoline derivative with potent cytotoxic activity against human glioblastoma cells. Clin. Cancer Res. 4:1405–1414, 1998.
(§2) MTT (3-[4,5-dimethyl thiazol-2-yl]-2,5-diphenyltetrazolium bromide)-based colorimetric assays were used for evaluation of the cytotoxicity of vanadocene compounds. Mosmann, T. Rapid colorimetric assay for cellular growth and survival: application to proliferation and cytotoxicity assays. J. Immunol. Methods, 65: 55–63, 1983. Briefly, cells were harvested with 0.125% (w/v) trypsin-0.02% EDTA (GIBCO-BRL) from exponential-phase maintenance cultures and centrifuged (300 g×5 min). After suspension and counting, cells were dispensed within triplicate 96-well tissue culture plates in 100 μl volumes. After 24 h incubation, the culture medium was discarded and replaced with 100 μl of fresh medium containing serial two-fold dilutions of drugs in medium to yield 1.9 μM to 250 μM. All compounds were reconstituted in DMSO to a concentration of 100 mM, and the stock solution was made fresh for each experiment. Control wells consisted of medium containing 0.25% of DMSO alone were used for solvent control. Culture plates were then incubated for 24 h before adding 10 μl of MTT solution (5 mg/ml in PBS) to each well. Wells containing only medium and MTT were used as controls for each plate. The tetrazolium/formazan reaction was allowed to proceed for 4 h at 37° C., and then 100 μl of the solubilization buffer (10% sodium dodecyl sulfate in 0.1% HCl) were added to all wells and mixed thoroughly to dissolve the dark blue formazan crystals. […]

[2] = system: U373 glioblastoma cells; assay: MTT cytotoxicity assay of vanadocenes, U373 cells; settings: 24 h
Description: as §1, §2

[3] = system: MDA-MB-231 breast cancer cells; assay: MC540 binding / PI permeability apoptosis assay, MDA-MB-231; settings: 100 μM, 24 hours
Description: (§3) A flow cytometric two-color terminal […] transferase (TdT)-mediated digoxigenin-uridine triphosphate (dUTP) nick-end labeling assay (TUNEL) was employed to detect apoptotic nuclei. Gavrieli, Y., Sherman, Y., Ben-Sasson, S. A. Identification of programmed cell death in situ via specific labeling of nuclear DNA fragmentation. J. Cell Biol., 119: 493–501, 1992. […] Cells were analyzed with a FACS Calibur flow cytometer (Becton Dickinson, Mountain View, Calif.). Relative DNA content (PI) was detected with band-pass filter 585/42, and dUTP incorporation (FITC) was detected with band-pass filter 530/30. Fluorescence was compensated for in the acquisition software using single-label control samples. Data were acquired in listmode, gated to 10,000 events per sample, and analyzed with the use of CELLQuest software program (Becton Dickinson). […] In other experiments, MC540 binding (as an early marker of apoptosis) and PI permeability (as a marker of advanced stage apoptosis) were simultaneously measured in human cancer cells 24 hours after exposure to vanadocenes, as previously described. […] Whole cells were analyzed using a FACStar Plus flow cytometer (Becton Dickinson, San Jose, Calif.). […]

[4] = system: U87 glioblastoma cells; assay: MC540 binding / PI permeability apoptosis assay, U87; settings: 100 μM, 24 hours
Description: as §3

[5] = system: BT-20 breast cancer cells; assay: MC540 binding / PI permeability apoptosis assay, BT-20; settings: 100 μM, 24 hours
Description: as §3

[6] = system: Ntera-2 testicular cancer cells; assay: Flow cytometric TUNEL apoptosis assay, NTERA-2 cells; settings: 24 h, TUNEL-positive nuclei
Description: (§4) A flow cytometric two-color terminal […] transferase (TdT)-mediated digoxigenin-uridine triphosphate (dUTP) nick-end labeling assay (TUNEL) was employed to detect apoptotic nuclei. Gavrieli, Y., Sherman, Y., Ben-Sasson, S. A. Identification of programmed cell death in situ via specific labeling of nuclear DNA fragmentation. J. Cell Biol., 119: 493–501, 1992. Exponentially growing cells (10^6/ml) were incubated in DMSO alone (0.1%) or treated with 100 μM each of the 16 vanadocenes (VDB, VDC, VMDC, VDI, VDA, VDCN, VDOCN, VDSCN, VDSeCN, VDT, VDCO, VDFe, VD(acac), VDH, VD(dpy), and VD(dtc) in 0.1% DMSO for 24 h. Cells were washed in PBS, fixed in 4% paraformaldehyde in PBS for 15 min on ice. Following two washings in PBS, they were permeabilized with 0.1% Triton X-100 in 0.1% sodium citrate for 2 min on ice, and washed twice in PBS. Labeling of exposed 3′-hydroxyl (3′-OH) ends of fragmented nuclear DNA was performed using TdT and fluorescein isothiocyanate (FITC)-conjugated dUTP according to the manufacturer's recommendations (Boehringer Mannheim, Indianapolis, Ind.). Cells were counterstained with 5 μg/ml PI. Control samples included: (i) untreated cells; (ii) cells incubated with the reaction mixture without the TdT enzyme. Cells were analyzed with a FACS Calibur flow cytometer (Becton Dickinson, Mountain View, Calif.). Relative DNA content (PI) was detected with band-pass filter 585/42, and dUTP incorporation (FITC) was detected with band-pass filter 530/30. Fluorescence was compensated for in the acquisition software using single-label control samples. Data were acquired in listmode, gated to 10,000 events per sample, and analyzed with the use of CELLQuest software program (Becton Dickinson). […] Vanadocene-induced apoptosis is shown by an increase in the number of cells staining with FITC-dUTP. The M1 and M2 gates were used to demarcate non-apoptotic and apoptotic PI-counterstained cell populations, respectively. TUNEL assays were performed using two testicular cell lines Tera-2 and Ntera-2 following exposure to each of the 16 vanadocenes. In other experiments, MC540 binding (as an early marker of apoptosis) and PI permeability (as a marker of advanced stage apoptosis) were simultaneously measured in human cancer cells 24 hours after exposure to vanadocenes, as previously described. Uckun, F. M., Narla, R. K., Jun, X., Zeren, T., Venkatachalam, T., Waddick, K. G., Rostostev, A., Myers, D. E. Cytotoxic activity of EGF-genstein against breast cancer cells. Clin. Cancer Res. 4:901–912, 1998. Vassilev, A., Ozer, Z., Navara, C., Mahajan, S., and Uckun, F. M. Bruton's tyrosine kinase as an inhibitor of the Fas/CD95 death-inducing signaling complex. J. Biol. Chem. 274:1646–56, 1999. Whole cells were analyzed using a FACStar Plus flow cytometer (Becton Dickinson, San Jose, Calif.). All analyses were done using 488 nm excitation from an argon laser. MC540 and PI emissions were split with a 600 nm short pass dichroic mirror and a 575 nm band pass filter was placed in front of one photomultiplier tube to measure MC540 emission and a 635 nm band pass filter was used for PI emission.

[7] = system: HL60 acute myeloid leukemia cells; assay: MC540 binding / PI permeability apoptosis assay, HL-60; settings: 100 μM, 24 hours
Description: as §3

[8] = system: NALM-6 B-lineage acute lymphoblastic leukemia cells; assay: MTT cytotoxicity assay of vanadocenes, NALM-6 cells; settings: 24 h
Description: as §1
as §2, with “control.” for “control. Culture plates were then incubated for 24 h before adding 10 μl of MTT solution (5 mg/ml in PBS) to each well. Wells containing only medium and MTT were used as controls for each plate. The tetrazolium/formazan reaction was allowed to proceed for 4 h at 37° C., and then 100 μl of the solubilization buffer (10% sodium dodecyl sulfate in 0.1% HCl) were added to all wells and mixed thoroughly to dissolve the dark blue formazan crystals.”

[9] = system: Tera-2 testicular cancer cells; assay: Flow cytometric TUNEL apoptosis assay, TERA-2 cells; settings: 24 h, TUNEL-positive nuclei
Description: as §4

[10] = system: Tera-2 testicular cancer cells; assay: MTT cytotoxicity assay of vanadocenes, TERA-2 cells; settings: 24 h, 1.9-250 μM
Description: as §1, §2

With `C1=C[CH]([V+2][CH]2C=CC=C2)C=C1.[N-]=C=[Se].[N-]=C=[Se]` [VDSeCN, VCp2(NCSe)2] as the molecule, how does the IC50 [1] read?
Its IC50 is 22 µM.

And the IC50 [2]?
The IC50 was 2 µM.

What about the “cells with dual MC540/PI fluorescence (advanced stage apoptosis), MDA-MB-231” value [3] of the same molecule?
Its value is 67%.

And the “total percentage of apoptotic cells (early and advanced stage), MDA-MB-231” value [3]?
Its value is 72%.

What about the “cells with dual MC540/PI fluorescence (advanced stage apoptosis), U87” value [4] of the same molecule?
Its value is 79%.

And the “total percentage of apoptotic cells (early and advanced stage), U87” value [4]?
The value was 90%.

What about the “cells with dual MC540/PI fluorescence (advanced stage apoptosis), BT-20” value [5] of the same molecule?
Its value is 40%.

And the “total percentage of apoptotic cells (early and advanced stage), BT-20” value [5]?
Its value is 61%.

And the “% Apoptosis at 100 μM NTERA-2” value [6]?
Its value is 99.6 ± 0.2 (N = 4) %.

And the “cells with dual MC540/PI fluorescence (advanced stage apoptosis), HL-60” value [7]?
The value was 51%.

What about the “total percentage of apoptotic cells (early and advanced stage), HL-60” value [7] of the same molecule?
Its value is 98%.

And the IC50 [8]?
Its IC50 is 3 µM.

What about the “% Apoptosis at 100 μM TERA-2” value [9] of the same molecule?
Its value is 78 (75, 80) %.

And the IC50 [10]?
Its IC50 is 9 µM.

`[Br-].[Br-].[V+2].c1cc[cH-]c1.c1cc[cH-]c1` [VDB, VCp2Br2] was tested. Which IC50 [1] did it give?
The IC50 was 70 µM.

What about the IC50 [2] of the same molecule?
The IC50 was 62 µM.

What about the “% Apoptosis at 100 μM NTERA-2” value [6] of the same molecule?
The value was 93 (93, 94) %.

And the IC50 [8]?
The IC50 was 17 µM.

What about the “% Apoptosis at 100 μM TERA-2” value [9] of the same molecule?
The value was 84 (83, 86) %.

What about the IC50 [10] of the same molecule?
The IC50 was 154 µM.

What does the source list for `[I-].[I-].[V+2].c1cc[cH-]c1.c1cc[cH-]c1` [VDI, VCp2I2]?
IC50 [1]: 204 µM; IC50 [2]: 5 µM; % Apoptosis at 100 μM NTERA-2 [6]: 57 (46, 69) %; IC50 [8]: 18 µM; % Apoptosis at 100 μM TERA-2 [9]: 72 (71, 73) %; IC50 [10]: 221 µM

Which results are given for `[N-]=[N+]=[N-].[N-]=[N+]=[N-].[V+2].c1cc[cH-]c1.c1cc[cH-]c1` [VDA, VCp2(N3)2]?
IC50 [1]: 68 µM; IC50 [2]: 51 µM; % Apoptosis at 100 μM NTERA-2 [6]: 85 (78, 93) %; IC50 [8]: 16 µM; % Apoptosis at 100 μM TERA-2 [9]: 85 (78, 92) %; IC50 [10]: 70 µM
